From ChEMBL document CHEMBL3885861, “Open TG-GATES”

Species on record: Rattus norvegicus
Experiment: Open TG-GATES - Regimen: Daily Repeat
Type: toxicity, organism-based, Sprague-Dawley
Design: regimen Daily Repeat, gender Male, age 6 weeks
Details: in vivo, po, 5 mg/kg, route gavage, dose level Middle; for APTT / Bas / Eos / Fbg / Hb / Ht / Lym / MCH / MCHC / MCV / Mono / Neu / PT / Plat / RBC / Ret / WBC: tissue Blood; for KIDNEY_L / KIDNEY_R / KIDNEY_TOTAL: tissue Kidney; for LIVER: tissue Liver; for ALP / ALT / AST / BUN / CRE / Ca / Cl / DBIL / GLC / IP / K / LDH / Na / PL / RALB / TBIL / TC / TG / TP / gamma-GTP: tissue Plasma

Structure (SMILES): O=P1(N(CCCl)CCCl)NCCCO1 (stereo not drawn) [CYCLOPHOSPHAMIDE ANHYDROUS]
- TERMINAL_BW (72 h, time 3 day): 226.6 g
- APTT (72 h, time 3 day): 21.9 s
- Bas (72 h, time 3 day): 0%
- Eos (72 h, time 3 day): 1%
- Fbg (72 h, time 3 day): 272.4 mg/dL
- Hb (72 h, time 3 day): 13 g/dL
- Ht (72 h, time 3 day): 39.1%
- Lym (72 h, time 3 day): 81.6%
- MCH (72 h, time 3 day): 21.9 pg
- MCHC (72 h, time 3 day): 33.2%
- MCV (72 h, time 3 day): 65.8 fL
- Mono (72 h, time 3 day): 2.4%
- Neu (72 h, time 3 day): 14%
- PT (72 h, time 3 day): 16.9 s
- Plat (72 h, time 3 day): 114.8 x10_4/uL
- RBC (72 h, time 3 day): 593 x10_4/ul
- Ret (72 h, time 3 day): 6.3%
- WBC (72 h, time 3 day): 54.2 x10_2/uL
- KIDNEY_L (72 h, time 3 day): 1 g
- KIDNEY_R (72 h, time 3 day): 1 g
- KIDNEY_TOTAL (72 h, time 3 day): 2 g
- LIVER (72 h, time 3 day): 10.7 g
- ALP (72 h, time 3 day): 1691.2 IU/L
- ALT (72 h, time 3 day): 40.6 IU/L
- AST (72 h, time 3 day): 68.6 IU/L
- BUN (72 h, time 3 day): 17 mg/dL
- CRE (72 h, time 3 day): 0.2 mg/dL
- Ca (72 h, time 3 day): 10.9 mg/dL
- Cl (72 h, time 3 day): 104.6 meq/L
- DBIL (72 h, time 3 day): 0.002 mg/dL
- GLC (72 h, time 3 day): 182.8 mg/dL
- IP (72 h, time 3 day): 8 mg/dL
- K (72 h, time 3 day): 4.1 meq/L
- LDH (72 h, time 3 day): 172 IU/L
- Na (72 h, time 3 day): 141.6 meq/L
- PL (72 h, time 3 day): 149.6 mg/dL
- RALB (72 h, time 3 day): 3 g/dL
- TBIL (72 h, time 3 day): 0.022 mg/dL
- TC (72 h, time 3 day): 75.4 mg/dL
- TG (72 h, time 3 day): 94.4 mg/dL
- TP (72 h, time 3 day): 5.5 g/dL
- gamma-GTP (72 h, time 3 day): 1 IU/L
- TERMINAL_BW ([…], time 7 day): 245.9 g
- TERMINAL_BW ([…], time 14 day): 288.6 g
- TERMINAL_BW ([…], time 28 day): 359.3 g
- APTT ([…], time 7 day): 22 s
- Bas ([…], time 7 day): 0%
- Eos ([…], time 7 day): 0.6%
- Fbg ([…], time 7 day): 273.8 mg/dL
- Hb ([…], time 7 day): 13.5 g/dL
- Ht ([…], time 7 day): 40.4%
- Lym ([…], time 7 day): 82.4%
- MCH ([…], time 7 day): 20.9 pg
- MCHC ([…], time 7 day): 33.4%
- MCV ([…], time 7 day): 62.7 fL
- Mono ([…], time 7 day): 3.2%
- Neu ([…], time 7 day): 12.6%
- PT ([…], time 7 day): 15.8 s
- Plat ([…], time 7 day): 133.9 x10_4/uL
- RBC ([…], time 7 day): 644.2 x10_4/ul
- Ret ([…], time 7 day): 5.3%
- WBC ([…], time 7 day): 36.4 x10_2/uL
- APTT ([…], time 14 day): 22 s
- Bas ([…], time 14 day): 0%
- Eos ([…], time 14 day): 1.4%
- Fbg ([…], time 14 day): 305.8 mg/dL
- Hb ([…], time 14 day): 13.8 g/dL
- Ht ([…], time 14 day): 40.5%
- Lym ([…], time 14 day): 75.2%
- MCH ([…], time 14 day): 20.4 pg
- MCHC ([…], time 14 day): 34%
- MCV ([…], time 14 day): 59.9 fL
- Mono ([…], time 14 day): 4.6%
- Neu ([…], time 14 day): 17.2%
- PT ([…], time 14 day): 14.6 s
- Plat ([…], time 14 day): 116.3 x10_4/uL
- RBC ([…], time 14 day): 676.8 x10_4/ul
- Ret ([…], time 14 day): 3.5%
- WBC ([…], time 14 day): 27.7 x10_2/uL
- APTT ([…], time 28 day): 21.7 s
- Bas ([…], time 28 day): 0%
- Eos ([…], time 28 day): 1.4%
- Fbg ([…], time 28 day): 308 mg/dL
- Hb ([…], time 28 day): 14.5 g/dL
- Ht ([…], time 28 day): 42.5%
- Lym ([…], time 28 day): 73%
- MCH ([…], time 28 day): 19.3 pg
- MCHC ([…], time 28 day): 34.3%
- MCV ([…], time 28 day): 56.5 fL
- Mono ([…], time 28 day): 3.6%
- Neu ([…], time 28 day): 20.8%
- PT ([…], time 28 day): 16 s
- Plat ([…], time 28 day): 110.7 x10_4/uL
- RBC ([…], time 28 day): 752.2 x10_4/ul
- Ret ([…], time 28 day): 3%
- WBC ([…], time 28 day): 35.5 x10_2/uL
- KIDNEY_L ([…], time 7 day): 1 g
- KIDNEY_R ([…], time 7 day): 1 g
- KIDNEY_TOTAL ([…], time 7 day): 2 g
- KIDNEY_L ([…], time 14 day): 1.2 g
- KIDNEY_R ([…], time 14 day): 1.2 g
- KIDNEY_TOTAL ([…], time 14 day): 2.3 g
- KIDNEY_L ([…], time 28 day): 1.3 g
- KIDNEY_R ([…], time 28 day): 1.3 g
- KIDNEY_TOTAL ([…], time 28 day): 2.6 g
- LIVER ([…], time 7 day): 10.8 g
- LIVER ([…], time 14 day): 12.3 g
- LIVER ([…], time 28 day): 14.6 g
- ALP ([…], time 7 day): 1412.8 IU/L
- ALT ([…], time 7 day): 38.2 IU/L
- AST ([…], time 7 day): 65 IU/L
- BUN ([…], time 7 day): 18.8 mg/dL
- CRE ([…], time 7 day): 0.2 mg/dL
- Ca ([…], time 7 day): 11 mg/dL
- Cl ([…], time 7 day): 105.6 meq/L
- DBIL ([…], time 7 day): 0 mg/dL
- GLC ([…], time 7 day): 180.4 mg/dL
- IP ([…], time 7 day): 6.8 mg/dL
- K ([…], time 7 day): 3.9 meq/L
- LDH ([…], time 7 day): 130 IU/L
- Na ([…], time 7 day): 142.8 meq/L
- PL ([…], time 7 day): 141.6 mg/dL
- RALB ([…], time 7 day): 2.9 g/dL
- TBIL ([…], time 7 day): 0.016 mg/dL
- TC ([…], time 7 day): 74.6 mg/dL
- TG ([…], time 7 day): 115.2 mg/dL
- TP ([…], time 7 day): 5.5 g/dL
- gamma-GTP ([…], time 7 day): 1.4 IU/L
- ALP ([…], time 14 day): 1134.4 IU/L
- ALT ([…], time 14 day): 36.6 IU/L
- AST ([…], time 14 day): 57.2 IU/L
- BUN ([…], time 14 day): 17.2 mg/dL
- CRE ([…], time 14 day): 0.2 mg/dL
- Ca ([…], time 14 day): 10.6 mg/dL
- Cl ([…], time 14 day): 108.6 meq/L
- DBIL ([…], time 14 day): 0 mg/dL
- GLC ([…], time 14 day): 171 mg/dL
- IP ([…], time 14 day): 7.1 mg/dL
- K ([…], time 14 day): 4 meq/L
- LDH ([…], time 14 day): 148.8 IU/L
- Na ([…], time 14 day): 143.6 meq/L
- PL ([…], time 14 day): 150.4 mg/dL
- RALB ([…], time 14 day): 3 g/dL
- TBIL ([…], time 14 day): 0.016 mg/dL
- TC ([…], time 14 day): 80.4 mg/dL
- TG ([…], time 14 day): 129.2 mg/dL
- TP ([…], time 14 day): 5.7 g/dL
- gamma-GTP ([…], time 14 day): 1 IU/L
- ALP ([…], time 28 day): 973.8 IU/L
- ALT ([…], time 28 day): 34.4 IU/L
- AST ([…], time 28 day): 57.8 IU/L
- BUN ([…], time 28 day): 16.8 mg/dL
- CRE ([…], time 28 day): 0.2 mg/dL
- Ca ([…], time 28 day): 10.5 mg/dL
- Cl ([…], time 28 day): 106.6 meq/L
- DBIL ([…], time 28 day): 0.002 mg/dL
- GLC ([…], time 28 day): 190.2 mg/dL
- IP ([…], time 28 day): 6.5 mg/dL
- K ([…], time 28 day): 3.8 meq/L
- LDH ([…], time 28 day): 133 IU/L
- Na ([…], time 28 day): 144 meq/L
- PL ([…], time 28 day): 135.8 mg/dL
- RALB ([…], time 28 day): 3.1 g/dL
- TBIL ([…], time 28 day): 0.024 mg/dL
- TC ([…], time 28 day): 68.8 mg/dL
- TG ([…], time 28 day): 111.6 mg/dL
- TP ([…], time 28 day): 5.9 g/dL
- gamma-GTP ([…], time 28 day): 1.2 IU/L
